# Earlier results as cited in patent publication US20140234433A1, “Topical Composition for Stimulating Epidermis and Dermis Layers of the Skin” (priority 2013, published 2014).
# Test system: facial skin
structure (smiles),measurement,setting,value
CC1=C(/C=C/C(C)=C/C=C/C(C)=C/C(=O)O)C(C)(C)CCC1 [tretinoin],histological characteristics,0.001% dosage,same histological characteristics as the inactive base material
same,histological response,0.01% and 0.05%,increased response with an increase in tretinoin concentrations
same,epidermal thickness,24 weeks,increase
same,findings in the dermis,24 weeks,no positive findings
same,melanocytes,24 weeks,decrease
same,stratum corneum,24 weeks,stratum corneum compactness
same,granular layer thickness,"24 weeks, 1 layer to 2-3 layers",increase
same,dermal changes,48 weeks of treatment,limited
same,"subjects showing erythema, scaling and peeling, and reporting stinging",average of the studies,approximately 80%
same,dermal findings on continued use,continued use up to 4 years,decrease in elastin and perivascular inflammation
